The term EC50 denotes the midpoint of the concentration-response curve. A word on the pEC50: it is −log10 of the EC50, conventionally taken in molar units. One may read the Tmax as the time at which the peak concentration occurs. As a reminder, the Cmax is the peak of the concentration-time curve.

A short description of data set [1]: plasma protein binding by equilibrium dialysis. It counts as in vitro ADME, rat. The settings on record: 1 μM of drug.
For data set [2] the following is noted: 20 mg/kg i.p., cited from earlier work.
Data set [3] deals with GluN2A- or GluN2B-containing receptors. The data set can be described thus: TEVC recordings, values stated jointly for GluN2A/B. It counts as cell-based, rat. To be noted: 10 or 30 μM compound.
Data set [4] has as its system GluN2C- and GluN2D-containing receptors. As to the kind of experiment: TEVC recordings, values stated in text jointly for GluN2C/D. In kind it is cell-based, rat. The settings on record: for p(doubling conc.) at GluN2C/D / pEC50 at GluN2C/D: value or range over GluN2C and GluN2D; for activity at GluN2C/D in words: TEVC evaluation; for maximum potentiation at GluN2C/D: fitted max, range over GluN2C and GluN2D, saturating co-agonists.

In data set [5] the test system is α4β2-nACh. In kind it is cell-based. To be noted: 10 μM compound, saturating agonist.
The target of data set [6] is GluN2A-containing receptors. To be noted: cited from earlier work.
Data set [7] in a line: stability as a powder or DMSO stock. To be noted: room temperature under regular atmosphere; longest time tested. In kind it is physicochemical.
The nature of data set [8]: pharmacokinetics in mice, i.p. dosing, plasma and brain by LC/MS-MS. To be noted: male, C57Bl/6, mouse, ip, 10 mg/kg.
The target of data set [9] is GluN1/GluN2C (Rattus norvegicus, UniProt P35439+Q00961). The data set can be described thus: cell-based.
GluN1/GluN2C (Rattus norvegicus, UniProt P35439+Q00961), sequence (Q00961 20-1237, other chains not shown): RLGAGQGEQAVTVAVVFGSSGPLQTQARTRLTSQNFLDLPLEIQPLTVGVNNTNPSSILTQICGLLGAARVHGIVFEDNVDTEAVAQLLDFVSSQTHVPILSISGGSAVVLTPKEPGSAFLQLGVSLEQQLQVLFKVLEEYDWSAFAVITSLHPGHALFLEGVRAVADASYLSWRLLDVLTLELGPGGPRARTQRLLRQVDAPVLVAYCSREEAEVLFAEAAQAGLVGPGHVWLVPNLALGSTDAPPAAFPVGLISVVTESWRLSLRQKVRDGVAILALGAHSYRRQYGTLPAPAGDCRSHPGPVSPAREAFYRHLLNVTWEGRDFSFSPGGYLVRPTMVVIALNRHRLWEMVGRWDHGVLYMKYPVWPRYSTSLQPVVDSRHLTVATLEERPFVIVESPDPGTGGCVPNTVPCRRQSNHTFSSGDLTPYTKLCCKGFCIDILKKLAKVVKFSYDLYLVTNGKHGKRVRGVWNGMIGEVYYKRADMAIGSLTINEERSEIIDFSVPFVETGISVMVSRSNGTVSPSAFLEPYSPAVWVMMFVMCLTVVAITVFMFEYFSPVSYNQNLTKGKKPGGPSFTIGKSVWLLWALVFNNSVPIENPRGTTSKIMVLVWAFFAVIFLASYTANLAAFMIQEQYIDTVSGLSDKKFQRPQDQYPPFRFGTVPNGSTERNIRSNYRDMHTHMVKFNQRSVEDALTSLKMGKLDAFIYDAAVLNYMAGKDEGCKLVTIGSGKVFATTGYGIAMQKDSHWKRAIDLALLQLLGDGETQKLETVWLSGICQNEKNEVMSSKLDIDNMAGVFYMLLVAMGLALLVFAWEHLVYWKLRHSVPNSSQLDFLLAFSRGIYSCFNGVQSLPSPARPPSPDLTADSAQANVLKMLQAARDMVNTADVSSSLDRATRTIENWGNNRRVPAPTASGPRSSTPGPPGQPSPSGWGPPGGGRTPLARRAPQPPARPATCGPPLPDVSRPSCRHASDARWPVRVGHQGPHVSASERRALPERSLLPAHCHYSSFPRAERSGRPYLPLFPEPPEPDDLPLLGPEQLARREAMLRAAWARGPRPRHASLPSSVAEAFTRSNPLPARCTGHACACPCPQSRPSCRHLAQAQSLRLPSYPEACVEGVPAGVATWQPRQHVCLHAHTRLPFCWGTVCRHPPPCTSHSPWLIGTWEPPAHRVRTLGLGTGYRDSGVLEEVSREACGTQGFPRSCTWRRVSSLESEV
The target in data set [10] is GluN1/GluN2D (Rattus norvegicus, UniProt Q62645). The settings on record: percent of control, 100 μM glutamate and 30 μM glycine.
GluN1/GluN2D, sequence (Q62645 28-1323, other chains not shown): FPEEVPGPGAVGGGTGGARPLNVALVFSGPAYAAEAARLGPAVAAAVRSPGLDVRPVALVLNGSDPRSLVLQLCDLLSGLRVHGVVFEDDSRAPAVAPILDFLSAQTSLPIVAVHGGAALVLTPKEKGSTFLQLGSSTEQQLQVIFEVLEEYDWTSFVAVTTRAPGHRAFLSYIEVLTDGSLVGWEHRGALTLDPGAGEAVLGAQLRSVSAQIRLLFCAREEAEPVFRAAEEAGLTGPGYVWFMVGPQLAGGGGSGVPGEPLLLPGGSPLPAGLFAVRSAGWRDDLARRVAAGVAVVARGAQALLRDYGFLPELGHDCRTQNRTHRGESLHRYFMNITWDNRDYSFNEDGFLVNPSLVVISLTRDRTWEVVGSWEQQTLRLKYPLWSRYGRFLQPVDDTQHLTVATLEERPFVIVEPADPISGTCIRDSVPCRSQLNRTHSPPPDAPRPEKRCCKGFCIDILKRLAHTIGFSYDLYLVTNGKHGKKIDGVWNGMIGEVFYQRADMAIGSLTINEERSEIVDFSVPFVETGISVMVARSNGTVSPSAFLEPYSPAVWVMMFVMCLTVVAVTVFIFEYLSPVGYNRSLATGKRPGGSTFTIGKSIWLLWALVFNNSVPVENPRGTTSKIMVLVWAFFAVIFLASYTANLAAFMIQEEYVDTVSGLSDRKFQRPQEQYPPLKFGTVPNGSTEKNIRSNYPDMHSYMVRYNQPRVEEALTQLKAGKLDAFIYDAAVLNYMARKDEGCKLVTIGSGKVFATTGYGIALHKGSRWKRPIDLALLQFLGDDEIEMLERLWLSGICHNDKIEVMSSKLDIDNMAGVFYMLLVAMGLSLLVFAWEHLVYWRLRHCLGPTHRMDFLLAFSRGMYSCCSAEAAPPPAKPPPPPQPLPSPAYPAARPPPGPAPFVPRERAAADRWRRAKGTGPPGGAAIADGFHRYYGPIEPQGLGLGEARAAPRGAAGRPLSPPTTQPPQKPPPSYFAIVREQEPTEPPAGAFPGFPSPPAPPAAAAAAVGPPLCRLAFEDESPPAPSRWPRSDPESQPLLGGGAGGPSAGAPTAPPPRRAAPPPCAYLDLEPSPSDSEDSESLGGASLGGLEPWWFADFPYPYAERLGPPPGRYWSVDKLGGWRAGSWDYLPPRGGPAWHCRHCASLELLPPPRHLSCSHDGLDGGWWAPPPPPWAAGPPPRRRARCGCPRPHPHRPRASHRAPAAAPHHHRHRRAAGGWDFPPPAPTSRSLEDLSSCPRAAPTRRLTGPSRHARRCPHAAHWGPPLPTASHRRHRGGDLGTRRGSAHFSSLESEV
Data set [11] deals with GluN1/GluN2C (Rattus norvegicus, UniProt Q00961). The settings on record: percent of control, 100 μM glutamate and 30 μM glycine.
GluN1/GluN2C (Rattus norvegicus, UniProt Q00961), sequence (Q00961 20-1237, other chains not shown): as the sequence (Q00961 20-1237, other chains not shown) above

`COc1ccc(OCC2c3cc(OC)c(OC)cc3CCN2C(=O)c2cccc(Cl)c2)cc1` (stereo not shown) [CIQ, (3-chlorophenyl)(6,7-dimethoxy-1-((4-methoxyphenoxy)-methyl)-3,4-dihydroisoquinolin-2(1H)-yl)methanone]: the “bound to rat plasma protein” value in [1] is on record as above 99.9%. Moreover, the “Cmax (ng/mL), plasma” value in data set [2] (1:4:5 dimethylacetamide:PEG400:(5% dextrose in water)) is on record as 2090 ± 20 ng/mL. Moreover, in [2], the “t1/2 (h), plasma” value is on record as 1.35 ± 0.12 h. On to `COc1ccc(OCC2c3cc(OC)c(OC)cc3CC(=O)N2Cc2cccc(Cl)c2)cc1` (stereo not shown) [12m, 2-(3-Chlorobenzyl)-6,7-dimethoxy-1-((4-methoxyphenoxy)-methyl)-1,4-dihydroisoquinolin-3(2H)-one], for which, in data set [3], the “activity at GluN2A/B in words” value is “no activity”. For the compound `COc1ccc(OCC2c3cccn3CC(=O)N2Cc2cccc(C(F)(F)F)c2)cc1` (stereo not shown) [31a, 1-((4-Methoxyphenoxy)methyl)-2-(3-(trifluoromethyl)benzyl)-1,2-dihydropyrrolo[1,2-a]pyrazin-3(4H)-one], the “p(doubling conc.) at GluN2C/D” value in data set [4] is on record as 5.9–6.1. In [5], the “inhibition of α4β2-nACh current response” value is above 50%. Regarding `COc1ccc(OCC2c3cccn3CCN2C(=O)c2cccc(Cl)c2)cc1` (stereo not shown) [25i, (3-Chlorophenyl)(1-((4-methoxyphenoxy)methyl)-3,4-dihydropyrrolo[1,2-a]pyrazin-2(1H)-yl)methanone], the “p(doubling conc.) at GluN2C/D” value in [4] was 5.8–5.9. Turning to `N#C[C@@H]1C[C@H]1c1c(Cl)ccc2nc(Cn3nc(C(F)(F)F)cc3Cl)cc(=O)n12` [GNE-5729], the EC50 in data set [6] was 0.037 µM. Consider `COc1cc2c(cc1OC)C(COC1CCOCC1)N(C(=O)c1cccc(C(F)(F)F)c1)CC2` (stereo not shown) [18d, (6,7-Dimethoxy-1-(((tetrahydro-2H-pyran-4-yl)oxy)methyl)-3,4-dihydroisoquinolin-2(1H)-yl)(3-(trifluoromethyl)phenyl)methanone], for which the “activity at GluN2C/D in words” value in data set [4] was “not tolerated”.

Take `COc1ccc(OCC2c3ccsc3CCN2C(=O)c2cccc(Cl)c2)cc1` (stereo not shown) [25h, (3-Chlorophenyl)(4-((4-methoxyphenoxy)methyl)-6,7-dihydrothieno[3,2-c]pyridin-5(4H)-yl)methanone]: in data set [4], the “maximum potentiation at GluN2C/D” value is on record as 330–340%. Regarding `COc1ccc(OCC2c3cnn(C)c3CCN2C(=O)c2cccc(Cl)c2)cc1` (stereo not shown) [25g, (3-Chlorophenyl)(4-((4-methoxyphenoxy)methyl)-1-methyl-1,4,6,7-tetrahydro-5H-pyrazolo[4,3-c]pyridin-5-yl)methanone], in data set [4], the negative-log EC50 (pEC50) at GluN2C/D is listed as below 4.5. Regarding `COc1ccc(OCC2c3cccn3CC(=O)N2Cc2cccc(F)c2)cc1` (stereo not shown) [EU-1180–453, 2-(3-Fluorobenzyl)-1-((4-methoxyphenoxy)methyl)-1,2-dihydropyrrolo[1,2-a]pyrazin-3(4H)-one], the “bound to rat plasma protein” value in data set [1] was 98.7%. Besides, the “stable as a powder or a DMSO stock” value in [7] was “at least 30 days”. The Tmax in data set [8] (brain and plasma) was 15 min. The Cmax in data set [8] (plasma) was 695 ± 111 ng/mL.

`COc1ccc(OCC2c3ccc(OC)cc3CC(=O)N2CCCC(F)(F)F)cc1` (stereo not shown) [12f, 6-Methoxy-1-((4-methoxyphenoxy)methyl)-2-(4,4,4-trifluorobutyl)-1,2-dihydroisoquinolin-3(4H)-one]: the “p(doubling conc.) at GluN2C/D” value in [4] is 5.0–5.1. For `COc1cc2c(cc1OC)C(CO)N(C(=O)c1cccc(C(F)(F)F)c1)CC2` (stereo not shown) [17b, (1-(Hydroxymethyl)-6,7-dimethoxy-3,4-dihydroisoquinolin-2(1H)-yl)(3-(trifluoromethyl)phenyl)methanone], the “activity at GluN2C/D in words” value in data set [4] is recorded as “not tolerated”. As to `COc1ccc(OCC2c3ccc(OC)cc3CC(=O)N2CC(F)(F)F)cc1` (stereo not shown) [12g, 6-Methoxy-1-((4-methoxyphenoxy)methyl)-2-(2,2,2-trifluoroethyl)-1,2-dihydroisoquinolin-3(4H)-one], the “pEC50 at GluN2C/D” value in data set [4] was below 4.5. `COc1ccc(OCC2c3cc(OC)sc3CCN2C(=O)c2cccc(Cl)c2)cc1` (stereo not shown) [25d, (3-Chlorophenyl)(2-methoxy-4-((4-methoxyphenoxy)methyl)-6,7-dihydrothieno[3,2-c]pyridin-5(4H)-yl)methanone]: in data set [9], the EC50 is 5.01 µM. Further, in data set [9] (read-out: max (%) GluN2C), the Emax worked out at 220%. In the case of `COc1ccc(OCC2c3occc3CCN2C(=O)c2cccc(Cl)c2)cc1` (stereo not shown) [25f, (3-Chlorophenyl)(7-((4-methoxyphenoxy)methyl)-4,7-dihydrofuro[2,3-c]pyridin-6(5H)-yl)methanone], the “p(doubling conc.) at GluN2C/D” value in data set [4] is reported as 5.4–5.5. `COc1ccc(OCC2c3sccc3CCN2C(=O)c2cccc(Cl)c2)cc1` (stereo not shown) [25a, (3-Chlorophenyl)(7-((4-methoxyphenoxy)methyl)-4,7-dihydrothieno[2,3-c]pyridin-6(5H)-yl)methanone]: in data set [4], the “maximum potentiation at GluN2C/D” value is on record as 280–350% and the “p(doubling conc.) at GluN2C/D” value is 5.3–5.6. The “activity at GluN2A/B in words” value in data set [3] is recorded as “no activity”. On to `COc1ccc(OCC2c3cc(OC)c(OC)cc3CCN2C(=O)c2cccc(Cl)c2)s1` (stereo not shown) [18a, (3-Chlorophenyl)(6,7-dimethoxy-1-(((5-methoxythiophen-2-yl)-oxy)methyl)-3,4-dihydroisoquinolin-2(1H)-yl)methanone], for which the “activity at GluN2C/D in words” value in [4] is “not tolerated”. For “1-((4-Ethoxyphenoxy)methyl)-2-(3-(trifluoromethyl)benzyl)-1,2-dihydropyrrolo[1,2-a]pyrazine-3(4H)-thione [compound 32]”, the “activity at GluN2C/D in words” value in [4] is “complete loss of activity”. In [10], the “max (%) GluN2D, pEC50 ND: percent potentiation at 30 μM drug” value is “ND (110) %”. The “max (%) GluN2C, pEC50 ND: percent potentiation at 30 μM drug” value in data set [11] is reported as “ND (120) %”.

(Values after publication PMC7961853 (Journal of medicinal chemistry, 2020).)
